Drawing on patent US8119805B2, “Substituted disulfonamide compounds” (Gruenenthal GmbH, priority 2008, dated 2012), this text covers inhibition for 16 molecules.

Structures can show the parent of a compound that is named as a salt.

Assay [1] addresses T1, B1R receptor of the rat (rB1R) (Rattus norvegicus, UniProt P97583).
T1 construct: expressed in transfected cells; host or cells: CHO K1 cells
T1 sequence (P97583 1-337): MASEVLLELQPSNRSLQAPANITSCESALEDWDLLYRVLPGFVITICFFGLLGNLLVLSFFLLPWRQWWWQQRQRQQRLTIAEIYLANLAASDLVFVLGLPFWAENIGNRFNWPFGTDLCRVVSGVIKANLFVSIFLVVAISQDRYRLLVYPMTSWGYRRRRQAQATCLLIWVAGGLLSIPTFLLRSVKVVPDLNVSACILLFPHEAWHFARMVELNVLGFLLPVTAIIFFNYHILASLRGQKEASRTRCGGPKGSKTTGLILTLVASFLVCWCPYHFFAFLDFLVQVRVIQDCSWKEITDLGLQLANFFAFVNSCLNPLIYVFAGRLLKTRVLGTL
Briefly: Functional investigation on the bradykinin 1 receptor (B1R), FLIPR Ca2+ assay, rB1R cells. Type of assay: cell-based. The following applies: test substance 10 μM; CHO K1 cells transfected with rat B1R gene; Fluo-4 Ca2+ signal; agonist Des-Arg9-bradykinin at EC80; % of maximum achievable inhibition; read-out: B1R antagonism, rat [10 μM] % inhibition. As to the method:
(§1) The agonistic or antagonistic action of substances on the bradykinin 1 receptor (B1R) of the human and rat species can be quantified with ectopically expressing cell lines (CHO K1 cells) and with the aid of a Ca^2+-sensitive dyestuff (Fluo-4) in a fluorescent imaging plate reader (FLIPR). The value in % activation is based on the Ca^2+ signal after addition of Lys-Des-[…]-bradykinin (0.5 nM) or Des-[…]-bradykinin (100 nM). Antagonists lead to a suppression of the Ca^2+inflow after addition of the agonist. % inhibition compared with the maximum achievable inhibition is stated. The agonistic or antagonistic action of substances on the bradykinin 1 receptor (B1R) of the human and rat species can be determined with the following assay. In accordance with this assay, the Ca^2+ inflow through the channel is quantified with the aid of a Ca^2+-sensitive dyestuff (type Fluo-4, Molecular Probes Europe BV, Leiden, Holland) in a fluorescent imaging plate reader (FLIPR, Molecular Devices, Sunnyvale, USA). Chinese hamster ovary cells (CHO K1 cells) transfected stably with the human B1R gene (hB1R cells) or the B1R gene of the rat (rB1R cells) are used. For functional studies, these cells are plated out on black 96-well plates with a clear base (BD Biosciences, Heidelberg, Germany or Greiner, Frickenhausen, Germany) in a density of 20,000-35,000 cells/well. The cells are left overnight at 37° C. and 5% CO2 in culture medium (hB1R cells: Nutrient Mixture Ham's F12, Gibco Invitrogen GmbH, Karlsruhe, Germany or DMEM, Sigma-Aldrich, Taufkirchen, Germany; rB1R cells: D-MEM/F12, Gibco Invitrogen GmbH, Karlsruhe, Germany) with 10 vol. % FBS (foetal bovine serum, Gibco Invitrogen GmbH, Karlsruhe, Germany or PAN Biotech GmbH, Aidenbach, Germany). On the following day, the cells are loaded for 60 min at 37° C. with 2.13 μM Fluo-4 (Molecular Probes Europe BV, Leiden Holland) in HBSS buffer (Hank's buffered saline solution, Gibco Invitrogen GmbH, Karlsruhe, Germany) with 2.5 mM probenecid (Sigma-Aldrich, Taufkirchen, Germany) and 10 mM HEPES (Sigma-Aldrich, Taufkirchen, Germany). The plates are then washed 2× with HBSS buffer, and HBSS buffer which additionally contains 0.1% BSA (bovine serum albumin; Sigma-Aldrich, Taufkirchen, Germany), 5.6 mM glucose and 0.05% gelatine (Merck KGaA, Darmstadt, Germany) is added. After a further incubation of 20 minutes at room temperature, the plates are inserted into the FLIPR for the Ca^2+ measurement. Alternatively, the plates are washed with buffer A (15 mM HEPES, 80 mM NaCl, 5 mM KCl, 1.2 mM CaCl2, 0.7 mM MgSO4, 2 g/l glucose, 2.5 mM probenecid), buffer A is added and the plates are loaded with 2.5 μM Fluo-4 and 0.025% Pluronic F127 (Sigma-Aldrich, Taufkirchen, Germany). Thereafter, the cells are washed 2× with buffer A and incubated for 30 minutes at room temperature with buffer A, which additionally contains 0.05% BSA and 0.05% gelatine, and thereafter inserted into the FLIPR for the Ca^2+ measurement. The Ca^2+-dependent fluorescence is measured here before and after addition of substances (λex=488 nm, λem=540 nm). Quantification is by measurement of the highest fluorescence intensity (FC, fluorescence counts) over time. The FLIPR protocol consists of 2 additions of substance. Test substances (10 μM) are first pipetted on to the cells and the Ca^2+ inflow is compared with the control (hB1R: Lys-Des-[…]-bradykinin>=50 nM; rB1R: Des-[…]-bradykinin 10 μM). This gives the result in % activation based on the Ca^2+ signal after addition of Lys-Des-[…]-bradykinin (>=50 nM) or Des-[…]-bradykinin (10 μM). After incubation for 10-20 minutes, Lys-Des-[…]-bradykinin (hB1R) or Des-[…]-bradykinin (rB1R) at the EC80 concentration is applied and the inflow of Ca^2+ is likewise determined. Antagonists lead to a suppression of the Ca^2+ inflow. The percent inhibition compared to the maximum achievable inhibition is calculated. In order to determine the IC50 value, the substances are added in various concentrations. […]

Assay [2] addresses T2, human B1R receptor (hB1R) (Homo sapiens, UniProt P46663).
T2 construct: expressed in transfected cells; host or cells: CHO K1 cells
T2 sequence (P46663 1-353): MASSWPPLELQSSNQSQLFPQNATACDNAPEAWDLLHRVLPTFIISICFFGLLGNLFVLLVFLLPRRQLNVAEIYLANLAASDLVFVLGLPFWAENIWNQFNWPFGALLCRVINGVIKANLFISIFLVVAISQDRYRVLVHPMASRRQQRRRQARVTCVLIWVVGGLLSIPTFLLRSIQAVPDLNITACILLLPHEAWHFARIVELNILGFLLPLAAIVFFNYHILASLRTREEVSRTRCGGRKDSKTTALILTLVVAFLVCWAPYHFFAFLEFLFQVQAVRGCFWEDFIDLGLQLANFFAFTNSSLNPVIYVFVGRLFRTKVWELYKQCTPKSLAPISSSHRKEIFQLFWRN
The assay can be described thus: Functional investigation on the bradykinin 1 receptor (B1R), FLIPR Ca2+ assay, hB1R cells. The assay is classed as cell-based. The following applies: test substance 10 μM; CHO K1 cells transfected with human B1R gene; Fluo-4 Ca2+ signal; agonist Lys-Des-Arg9-bradykinin at EC80; % of maximum achievable inhibition; read-out: B1R antagonism, human [10 μM] % inhibition. The method, then: as §1

Take `Cc1cc(S(=O)(=O)N2CCC[C@H]2CCCS(=O)(=O)N2CCC(Oc3ccncc3)CC2)c(C)cc1Cl` [Example 53, (S)-4-(1-(3-(1-(4-Chloro-2,5-dimethylphenylsulfonyl)pyrrolidin-2-yl)propylsulfonyl)piperidin-4-yloxy)pyridine]: the results for the inhibition at 10 µM in assay [1] and in assay [2] were 86% and 74%, respectively.

Consider `COc1cc(C)c(S(=O)(=O)N2CCC[C@H]2CCCS(=O)(=O)N2CCN(c3nccs3)CC2)c(C)c1C` [Example 40, (S)-2-(4-(3-(1-(4-Methoxy-2,3,6-trimethylphenylsulfonyl)pyrrolidin-2-yl)propylsulfonyl)piperazin-1-yl)thiazole], for which the inhibition at 10 µM in assay [2] was found to be 50%.

On to `CN1CCC(N2CCN(S(=O)(=O)CCC[C@@H]3CCCN3S(=O)(=O)c3ccc(Cl)cc3Cl)CC2)CC1` [Example 31, (S)-1-(3-(1-(2,4-Dichlorophenylsulfonyl)pyrrolidin-2-yl)propylsulfonyl)-4-(1-methylpiperidin-4-yl)piperazine], for which the inhibition at 10 µM in assay [1] was 64%; in assay [2], 89%. Regarding `Cc1cc(C)c(S(=O)(=O)N2CCC(CCCS(=O)(=O)N3CCN(C4CCN(C)CC4)CC3)CC2)c(C)c1` [Example 13, 1-(3-(1-(Mesitylsulfonyl)piperidin-4-yl)propylsulfonyl)-4-(1-methylpiperidin-4-yl)piperazine], the inhibition at 10 µM in assay [2] stood at 53%.

As for `COc1cc(C)c(S(=O)(=O)N2CCCCC2CCCS(=O)(=O)N2CCN(C3CCN(C)CC3)CC2)c(C)c1` (centres unmarked) [Example 26, 1-(3-(1-(4-Methoxy-2,6-dimethylphenylsulfonyl)piperidin-2-yl)propylsulfonyl)-4-(1-methylpiperidin-4-yl)piperazine], the inhibition at 10 µM worked out at 98% in assay [1] and 96% in assay [2].

On to `O=S(=O)(CCC[C@@H]1CCCN1S(=O)(=O)c1ccccc1C(F)(F)F)N1CCC2(CCN(c3ccncc3)CC2)CC1` [Example 68, 3-(Pyridin-4-yl)-9-(3-((S)-1-(2-(trifluoromethyl)phenylsulfonyl)pyrrolidin-2-yl)propylsulfonyl)-3,9-diazaspiro[5.5]undecane hydrochloride], for which the inhibition at 10 µM is 96% in assay [1] and 100% in assay [2].

For `CN1CCC(N2CCN(S(=O)(=O)CCC[C@@H]3CCCN3S(=O)(=O)c3cccc4ccccc34)CC2)CC1` [Example 30, (S)-1-(1-Methylpiperidin-4-yl)-4-(3-(1-(naphthalen-1-ylsulfonyl)pyrrolidin-2-yl)propylsulfonyl)piperazine], the values for the inhibition at 10 µM in assay [1] and in assay [2] were 48% and 56%, respectively.

Turning to `Cc1cc(S(=O)(=O)N2CCC(CCS(=O)(=O)N3CCC(CCN4CCCC4)CC3)C2)c(C)cc1Cl` (centres unmarked) [Example 19, 1-(2-(1-(4-Chloro-2,5-dimethylphenylsulfonyl)pyrrolidin-3-yl)ethylsulfonyl)-4-(2-(pyrrolidin-1-yl)ethyl)piperidine], the inhibition at 10 µM in assay [1] was found to be 13%; in assay [2] it was 77%. Taken in the same sequence, the figures for `Cc1cccc(Cl)c1S(=O)(=O)N1CCC[C@H]1CCCS(=O)(=O)N1[C@@H]2CC[C@H]1C[C@H](Oc1ccncc1)C2` [Example 55, (1R,3R,5S)-8-(3-((S)-1-(2-Chloro-6-methylphenylsulfonyl)pyrrolidin-2-yl)propylsulfonyl)-3-(pyridin-4-yloxy)-8-azabicyclo[3.2.1]octane] were 98% and 98%. On to `O=S(=O)(CCC1CCN(S(=O)(=O)c2cccc(Cl)c2Cl)C1)N1CCN(c2ccncc2)CC1` (centres unmarked) [Example 21, 1-(2-(1-(2,3-Dichlorophenylsulfonyl)pyrrolidin-3-yl)ethylsulfonyl)-4-(pyridin-4-yl)piperazine hydrochloride], for which the inhibition at 10 µM was 73% in assay [1] and 97% in assay [2]. Taken in the same sequence, the figures for `O=S(=O)(CCC[C@@H]1CCCN1S(=O)(=O)c1ccc(Cl)c2ccccc12)N1CCC2(CCN(c3ccncc3)CC2)CC1` [Example 79, 3-(3-((S)-1-(4-Chloronaphthalen-1-ylsulfonyl)pyrrolidin-2-yl)propylsulfonyl)-9-(pyridin-4-yl)-3,9-diazaspiro[5.5]undecane] were 96% and 77%.

For the molecule `O=S(=O)(CCC[C@@H]1CCCN1S(=O)(=O)c1ccc(Cl)cc1Cl)N1CCC(Oc2ccncc2)CC1` [Example 51, (S)-4-(1-(3-(1-(2,4-Dichlorophenylsulfonyl)pyrrolidin-2-yl)propylsulfonyl)piperidin-4-yloxy)pyridine], the inhibition at 10 µM in assay [1] stood at 93%; in assay [2], 74%. With `Cc1cc(C)c(S(=O)(=O)N2CCC(CCS(=O)(=O)N3CCC(CCN4CCCC4)CC3)C2)c(C)c1` (centres unmarked) [Example 1, 1-(2-(1-(Mesitylsulfonyl)pyrrolidin-3-yl)ethylsulfonyl)-4-(2-(pyrrolidin-1-yl)ethyl)piperidine], the inhibition at 10 µM in assay [2] is 83%.

In the case of `O=S(=O)(CCC1CCN(S(=O)(=O)c2c(Cl)cc(C(F)(F)F)cc2Cl)CC1)N1CCC(CCN2CCCC2)CC1` [Example 14, 1-(2,6-Dichloro-4-(trifluoromethyl)phenylsulfonyl)-4-(2-(4-(2-(pyrrolidin-1-yl)ethyl)piperidin-1-ylsulfonyl)ethyl)piperidine], the inhibition at 10 µM in assay [2] came to 58%. Still for that read-out and setting: the result for `Cc1cc(C)c(S(=O)(=O)N2CCC(CCCS(=O)(=O)N3CCC(CCN4CCCC4)CC3)CC2)c(C)c1` [Example 12, 1-(Mesitylsulfonyl)-4-(3-(4-(2-(pyrrolidin-1-yl)ethyl)piperidin-1-ylsulfonyl)propyl)piperidine] reads 52%; that for `O=S(=O)(CCC1CCN(S(=O)(=O)c2csc3ccccc23)C1)N1CCC(CCN2CCCC2)CC1` (centres unmarked) [Example 3, 1-(2-(1-(Benzo[b]thiophen-3-ylsulfonyl)pyrrolidin-3-yl)ethylsulfonyl)-4-(2-(pyrrolidin-1-yl)ethyl)piperidine], 55%.
